Measurements reported in patent US9745346B2, “Antimicrobial peptides and their application” (INFINITEC ACTIVOS S.L., priority 2014, dated 2017).
Converted amounts (≈) assume the structure as drawn. *1 amine or outer side, *2 acyl side, *3 side chain or, on linkers, in order; H or OH if unused. Where a SMILES comes first, the peptide text is derived from it. The star is where a group is joined. NH(CH2)3(OCH2CH2)2O(CH2)3NH = C(CN[*:1])COCCOCCOCCCN[*:2]; Palmitoyl = CCCCCCCCCCCCCCCC(=O)*

How the values were obtained:
Vibrio angillarum = conditions: 21 h
Protocol: (§1) Minimum inhibitory concentration (MIC) is the lowest concentration of an antimicrobial that will inhibit the growth occurred between time zero and […].
(§2) The MIC of peptides of examples 1, 2 and 3 was determined using gram negative bacteria (Escherichia Coli, Vibrio angillarum, Vibrio ordalii, Enterobacter aerogenes, Aeromonas hydrophila, Vibrio parahemolyticus, Bacillus Oleronius and Salmonella tiphy) and gram positive bacteria (Bacillus megaterium, Micrococcus luteus, Staphylococcus aureus and Staphylococcus epidermidis).
(§3) To initiate the exponential phase of bacterial growth prior to the assay, a sample of each bacteria type was allowed to grow overnight at 37° C. in Mueller-Hinton broth and incubated at 37° C. MRSA (Methicillin Resistant Staphylococcus aureus) was grown at 35° C. in cation-adjusted MH broth.
(§4) A final concentration of 1×10^5 CFU/ml was used in all assays. The assays were carried out in 96-well flat-bottom plates. Bacterial suspension in 2× concentrated broth was added to the different peptides at concentrations that varied from 2.500 to 1 μ/mL in H2O in serial twofold dilutions (Time t0). The plates were then incubated for 21 h (Time tf) at 37° C. […] The concentration necessary to inhibit 50% bacterial growth (IC50) could be by using sigmoidal curve-fitting software.

[1] = tested on: Staphylococcus epidermidis; conditions: 21 h
Protocol: as §1, §2, §3, §4

Salmonella tiphy = conditions: 1×10^5 CFU/ml, 21 h at 37° C., optical density at 620 nm
Protocol: as §1, §2, §3, §4

Enterobacter hydrophila = conditions: 21 h
Protocol: as §1, §2, §3, §4

Staphylococcus aureus = conditions: 21 h
Protocol: as §1, §2, §3, §4

Micrococcus luteus = conditions: 21 h
Protocol: as §1, §2, §3, §4

E. Coli = conditions: 21 h
Protocol: as §1, §2, §3, §4

Bacillus oleronius = conditions: 21 h
Protocol: as §1, §2, §3, §4

Bacillus megaterium = conditions: 21 h
Protocol: as §1, §2, §3, §4

Vibro ordalii = conditions: 21 h
Protocol: as §1, §2, §3, §4

in vitro = type: cell-based; conditions: human
Protocol: As a safety test for the peptides of the present invention the hemolytic activity was determined by using human erythrocytes (RBCs).
The assays were carried out in 96-well flat-bottom plates against a 0.25% RBC suspension as described elsewhere (Blondelle, S. E., L. R. Simpkins, E. Pérez-Payá, and R. A. Houghten. 1993. Influence of tryptophan residues on melitin's hemolytic activity. Biochim. Biophys. Acta 1202:331-336.).
In brief, peptide mixtures were added to the RBC solution at concentrations that varied from 500 to 4 μg/mL in serial twofold dilutions. Following incubation at 37° C. for 1 hour, the plates were centrifuged at 2.800 rpm for 5 min. The supernatant was separated from the pellet, an its optical density at 414 nm was measured. The hemolytic dose to lyse 50% of RBCs (IC50) was calculated by using the sigmoidal curve-fitting software Graphpad.

Fusarium oxysporum = type: cell-based
Protocol: (§5) For this essay, diluted spores kept at −80° C. were used (fresh ones in the case of de Saprolegnia sp.), 1×10^4 spores/ml at the specific media for every fungi. 10 μg/ml of tetracycline were added to avoid bacterial action. […] of peptide solution plus […] of spore solution alongside the adequated media are added to a 96 wells microplaque. As a positive control a culture of the spores at the same concentration than the assay but without peptide. The MICs were defined as the lowest concentrations of peptides at which total inhibition of growth is observed and no change in optical density at 595 nm occurred between the measures obtained at t0 and tf.

Saprolegnia sp = type: cell-based
Protocol: as §5

Neurospora crassa = type: cell-based
Protocol: as §5

LPS from E. Coli 055:B5 = assay: LPS-neutralizing activity, chromogenic Limulus Amebocyte Lysate (LAL) test; type: biochemical; conditions: LPS 100 pg/mL, 45 min at 37° C., read-out: LPS-neutralization activity IC50 ± SD
Protocol: All solutions used in the LPS-neutralizing activity assay were tested to ensure they were endotoxin-free and material was sterilized by heating 3 h at 180° C. LPS from E. Coli 055:B5 and Polymyxin B were purchased from Sigma. LPS-neutralizing activity was measured using the chromogenic Limulus Amebocyte Lysate (LAL) test 40 following the manufacturer's instructions (Cambrex). LAL reagent contains a clottable protein that is activated in the presence of non-neutralized LPS and is an extremely sensitive indicator of the presence of endotoxin. When activated, this enzyme catalyses the release of p-nitroaniline (pNA) from the colorless chromogenic substrate Ac-Ile-Glu-Ala-Arg-pNA. The pNA released was measured photometrically at 405 nm in a Rosys Anthos 2010 microtiter plate reader (Tecnomara AG, Zurich, Switzerland). Peptides were incubated at a range of concentrations (200 to 0.001 μM) with LPS (100 pg/mL) in a 96-well microtiter for 45 min at 37° C. Polymyxin B (10 μg/mL) was used as positive control. LAL (12.5 μL) was added to start the reaction at 37° C. After 16 min, non-neutralized LPS was detected after a 10 min incubation with the chromogenic substrate (25 μ) Acetic acid (25% v/v final concentration) was added to stop the reaction and the absorbance was monitored at 405 nm in a Multiskan Ascent microtiter plate reader (ThermoLabsystems). IC50 (the concentration necessary to in vitro neutralize 50% of LPS) values were determined by a serial dilution assay using 100 pg/mL of LPS and a range of peptide concentrations as mentioned above.

Molecule	Gram negative bacteria MIC, Vibrio angillarum (Vibrio angillarum)	Gram positive bacteria MIC, Staphylococcus epidermidis [1]	Gram negative bacteria MIC, Salmonella tiphy (Salmonella tiphy)	Gram negative bacteria MIC, Enterobacter hydrophila (Enterobacter hydrophila)	Gram positive bacteria MIC, Staphylococcus aureus (Staphylococcus aureus)	Gram positive bacteria MIC, Micrococcus luteus (Micrococcus luteus)	Gram negative bacteria MIC, E. Coli (E. Coli)	Gram negative bacteria MIC, Bacillus oleronius (Bacillus oleronius)	Gram positive bacteria MIC, Bacillus megaterium (Bacillus megaterium)	Gram negative bacteria MIC, Vibro ordalii (Vibro ordalii)	HC50 at 1 hour (in vitro)	MIC, Fusarium oxysporum (Fusarium oxysporum)	MIC, Saprolegnia sp (Saprolegnia sp)	MIC, Neurospora crassa (Neurospora crassa)	IC50 (LPS from E. Coli 055:B5)
CC(=O)N[C@@H](CCCCN)C(=O)N[C@@H](C)C(=O)N[C@@H](CCC(N)=O)C(=O)N[C@@H](CCCCN)C(=O)N[C@@H](CCCNC(=N)N)C(=O)N[C@@H](Cc1ccccc1)C(N)=O [Example 1, Ac-KAQKRF-NH2] (Ac-KAQKRF-NH2)	31.2 µg/mL	11.4 µg/mL	11.7 µg/mL	14.2 µg/mL	11.7 µg/mL	6.0 µg/mL	10.8 µg/mL	11.9 µg/mL	13.7 µg/mL	10.2 µg/mL	> 500 µg/mL	0.9 µg/mL (≈ 1.1 µM)	0.2 µg/mL (≈ 0.245 µM)	0.9 µg/mL (≈ 1.1 µM)	–
CCCCCCCCCCCCCCCC(=O)N[C@@H](CCCCN)C(=O)N[C@@H](C)C(=O)N[C@@H](CCC(N)=O)C(=O)N[C@@H](CCCCN)C(=O)N[C@@H](CCCNC(=N)N)C(=O)N[C@@H](Cc1ccccc1)C(N)=O [Example 2, Palm-KAQKRF-NH2] (Palmitoyl-KAQKRF-NH2)	31.0 µg/mL	5.6 µg/mL	6.1 µg/mL	11.3 µg/mL	5.7 µg/mL	5.6 µg/mL	5.6 µg/mL	9.7 µg/mL	12.3 µg/mL	7.4 µg/mL	> 500 µg/mL	0.5 µg/mL (≈ 0.493 µM)	0.1 µg/mL (≈ 0.0986 µM)	0.2 µg/mL (≈ 0.197 µM)	–
CCCCCCCCCCCCCCCC(=O)N[C@@H](CCCCN)C(=O)N[C@@H](C)C(=O)N[C@@H](CCC(N)=O)C(=O)N[C@@H](CCCCN)C(=O)N[C@@H](CCCNC(=N)N)C(=O)N[C@@H](Cc1ccccc1)C(=O)NCCCOCCOCCOCCCN [Example 3, Palm-KAQKRF-NH—(CH2)3—(OCH2CH2)3—CH2—NH2] (Palmitoyl-KAQKRF-{NH(CH2)3(OCH2CH2)2O(CH2)3NH})	30.0 µg/mL	5.8 µg/mL	5.8 µg/mL	11.6 µg/mL	5.5 µg/mL	5.5 µg/mL	5.5 µg/mL	8.0 µg/mL	12.1 µg/mL	8.2 µg/mL	> 500 µg/mL	0.4 µg/mL (≈ 0.329 µM)	0.1 µg/mL (≈ 0.0821 µM)	0.3 µg/mL (≈ 0.246 µM)	–
AQKRFL [compound 6, Ac-AQKRFL-NH2]	–	–	–	–	–	–	–	–	–	–	–	–	–	–	46 ± 1.1 µM
IKISGK [compound 2, Ac-IKISGK-NH2]	–	–	–	–	–	–	–	–	–	–	–	–	–	–	105 ± 1.2 µM
IKISGKWKAQKRFLKM [compound 1, Ac-IKISGKWKAQKRFLKM-NH2]	–	–	–	–	–	–	–	–	–	–	–	–	–	–	34 ± 1.3 µM
KISGKW [compound 3, Ac-KISGKW-NH2]	–	–	–	–	–	–	–	–	–	–	–	–	–	–	96 ± 1.1 µM
KWKAQK [compound 5, Ac-KWKAQK-NH2]	–	–	–	–	–	–	–	–	–	–	–	–	–	–	47 ± 1.1 µM
SGKWKA [compound 4, Ac-SGKWKA-NH2]	–	–	–	–	–	–	–	–	–	–	–	–	–	–	85 ± 1.4 µM
